Reference: publication PMC10254773, “Identification of Flavonoids from Scutellaria barbata D. Don as Inhibitors of HIV-1 and Cathepsin L Proteases and Their Structure–Activity Relationships” (Molecules, 2023)

Target: T1, HIV-1 PR (HIV-1 protease) (HIV-1 M:B_HXB2R, UniProt P04585)
T1 construct: gene gag-pol; mature protease cut from Gag-Pol polyprotein (Pr160Gag-Pol); SensoLyte 520 HIV-1 assay kit; homodimer
Type: biochemical
Conditions: n = 3; read-out: HIV-1 PR / IC50 ± SD (mg/mL) (converted)

SMILES	IC50
O=c1cc(-c2ccc(O)cc2)oc2cc(O)cc(O)c12 [Apigenin]	481 µM
O=C(O)[C@H]1O[C@@H](Oc2cc3oc(-c4ccccc4)cc(=O)c3c(O)c2O)[C@H](O)[C@@H](O)[C@@H]1O [Baicalin]	1860 µM
O=c1cc(-c2ccc(O)c(O)c2)oc2cc(O)cc(O)c12 [Luteolin]	136 µM
O=C1C[C@@H](c2ccc(O)cc2)Oc2cc(O)cc(O)c21 [Narigenin]	661 µM
O=c1cc(-c2ccc(O)cc2)oc2cc(O)c(O)c(O)c12 [Scutellarein]	238 µM
COc1c(O)cc(O)c2c(=O)cc(-c3ccccc3)oc12 [Wogonin]	1410 µM
